This note sets out measurements from patent US20220105072A1, “PHARMACEUTICAL COMPOSITION FOR PREVENTING OR TREATING DIABETES COMPLICATIONS COMPRISING NOVEL CHRYSIN DERIVATIVE COMPOUND AS ACTIVE INGREDIENT” (FRONTBIO INC., priority 2018, published 2022).

In brackets after ≈: the same amount, converted by molar mass. Where two headings read alike, the source gives them in different places.

One data set concerns AGE formation. Briefly: Bovine serum albumin-methylglyoxal analysis, AGE formation (intermediate stage). Format: biochemical. On the procedure:
(2) Bovine Serum Albumin—Methylglyoxal Analysis with Respect to AGE Formation (Intermediate Stage)
Bovine serum albumin (50 mg/mL) was incubated with methylglyoxal (100 mM) in a sodium phosphate buffer ([…], pH 7.4) at 37° C. for 24 hours in the presence of various concentrations of compounds (including a control group).
All reagents and samples were sterilized by filtration through […] membrane filters. Fluorescence intensity was measured at an excitation wavelength of 355 nm and an emission wavelength of 460 nm using a luminescence spectrometer LS50B (Perkin-Elmer Ltd., Buckinghamshire, England) (Wu & Yen, 2005). The test was conducted using aminoguanidine as a positive control group. The concentration of each test sample showing 50% inhibitory activity (IC50) was estimated from the least squares regression line of logarithmic concentrations plotted against the residual activity.

Data set [1] can be described thus: Solubility analysis in distilled water (HPLC). Format: physicochemical. The following applies: for solubility in water, times higher than Comparative Example 1: versus Comparative Example 1. On the procedure: The chrysin and derivatives thereof were dissolved in distilled water and sonicated for 1 hour to maximize solubility and incubated at 37° C. After sonication, undissolved samples were removed by centrifugation (7000 g, 37° C., 5 min). The concentration of the sample was analyzed by HPLC by diluting the supernatant with methanol and filtering through a 0.45 μm disposable syringe filter (Advantec, Dublin, Calif., USA).

The subject of a further data set is crosslinking of AGEs. Briefly: N-acetyl-glycyl-lysine-methyl ester D-ribose assay, crosslinking of AGEs (late stage). It is filed as biochemical. The settings on record: for IC50: read-out: IC50 (AGE crosslinking, late stage). The protocol:
(3) N-acetyl-glycyl-lysine-methyl ester D-ribose assay on crosslinking of AGEs (late stage)
This test was used to evaluate the ability of the sample to inhibit crosslinking of GK peptides in the presence of D-ribose using the method described by Rahbar et al. (1999). The GK peptide (26.7 mg/mL) was incubated with D-ribose (200 mg/mL) under aseptic conditions in sodium phosphate buffer (0.5 M, pH 7.4) at 37° C. for 24 hours. The synthesized compound was added to the model system at a final concentration of 1 mM, excluding the aminoguanidine used at 10 mM and 50 mM. At the end of the incubation period, fluorescence intensity was measured at an excitation wavelength of 335 nm and an emission wavelength of 460 nm.

Data set [2] concerns formation of Amadori compound. Description: Hemoglobin-δ-gluconolactone assay, formation of Amadori compound (initial stage). The settings on record: for initial inhibitory activity, times higher than the positive control: versus positive control group (aminoguanidine). Format: biochemical, human. The protocol:
(1) Analysis of Hemoglobin-δ-Gluconolactone with Respect to Formation of Amadori Compound (Initial Stage)
Evaluation of the initial stage of protein glycosylation was determined by δ-gluconolactone assay (Rahbar et al., 1999). Briefly, fresh human blood (50 mg/mL) was cultured with glucose (144 mg/mL) in a phosphate buffer (pH 7.4) containing 0.2 g/L of NaN3 under conditions of […] at 37° C. for 7 days.
In certain experiments, an indicated sample was added in a concentration range of 0.01 to 1 mM to a model system. Fluorescence of the sample was measured at maximum excitation and emission values of 355 nm and 460 nm, respectively. The test was conducted using aminoguanidine, a known inhibitor, as a positive control group.

A further data set deals with RAW 264.7 cells. Description: NO production in LPS-induced RAW 264.7 cells (Griess reagent). It is filed as cell-based. The settings on record: 24 hours, FIG. 1A. The protocol: The cytotoxicity of chrysin and derivatives thereof in RAW 264.7 cells was investigated using a MTS assay kit. Cells (1.6×10^4/well) were cultured in 96-well plates and treated with samples (10, 25 and 100 μM) for 12, 24, 48 and 72 hours. After culture, a MTS solution was incubated at 20 μL/well at 37° C. in a humidified 5% CO2 atmosphere for 90 minutes. The optical density at 490 nm was measured three times using an EL-800 universal microplate reader (Bio-Tek Instrument Inc., Winooski, USA). The cell viability of a untreated group was set at 100%. RAW 264.7 cells were seeded at a density of 4×10^5 cells/well on a 12-well plate and incubated with LPS (1 μg/mL) and samples of various concentrations for 24 hours. The concentration of […] (NO) in the medium was measured using a Griess reagent system described by the manufacturer. The production of NO was measured at 570 nm using an EL-800 Universal microplate reader (Bio-Tek Instrument Inc., Winooski, USA) and compared with the nitrite standard calibration curve.
A general note: Griess reagent forms a coloured azo dye with nitrite.

As for `O=c1cc(-c2ccccc2)oc2cc(O)cc(O)c12` [Comparative Example 1, 5,7-dihydroxy-2-phenyl-4H-chromen-4-one, reference compound], in the data set on AGE formation (versus aminoguanidine), the “activity against AGE formation, times higher than the positive control group” value was found to be 5.48 times. The compound further returned a Solubility in water in data set [1] (37° C.) of 30 µM (≈ 7.63 µg/mL). Further, the “inhibitory activity (late stage)” value with crosslinking of AGEs (at a concentration of 10.0 mg/mL) is on record as “did not exhibit inhibitory activity”.
The IC50 is the concentration that inhibits the measured activity by half. In general, solubility refers to the dissolved amount per volume that the medium holds. As to `N=C(N)NN` [Positive control group (Aminoguanidine), aminoguanidine, reference compound], the IC50 with AGE formation was 137 µM; with crosslinking of AGEs, 1900 µM. This compound returned a solubility at 1 h in data set [1] (distilled water, water, thermodynamic from solid, 37° C.) of 30 µM (≈ 2.22 µg/mL).
`CC(=O)Oc1cc(O)c2c(=O)cc(-c3ccccc3)oc2c1` [Synthesis Example 1, 5-hydroxy-4-oxo-2-phenyl-4H-chromen-7-yl acetate]: in data set [2], the “initial inhibitory activity, times higher than the positive control” value (from here on “initial inhibitory activity”) was determined as 4.66 times. Besides, the IC50 with AGE formation came to 21.6 µM. In data set [1] (37° C.), this compound gave a Solubility in water of 86 µM. Besides, in data set [1], the “solubility in water, times higher than Comparative Example 1” value was found to be 2.87 times.
With `CC(=O)Oc1cc(OC(C)=O)c2c(=O)cc(-c3ccccc3)oc2c1` [Synthesis Example 2, 4-oxo-2-phenyl-4H-chromen-5,7-diyl diacetate], in the data set on RAW 264.7 cells, the “effect on NO production” value was “inhibited NO in a concentration-dependent manner”. In addition, the “inhibitory activity against formation of the Amadori compound, times higher than chrysin” value in data set [2] (versus chrysin) turned out to be 66.96 times. Further, the “initial inhibitory activity” value in data set [2] was determined as 422.07 times. The IC50 in the data set with AGE formation worked out at 0.91 µM; in the data set with crosslinking of AGEs (unit inferred) it was 22.3 µM. The compound further displayed a Solubility in water in data set [1] (37° C.) of 265 µM. Further, the “solubility in water, times higher than Comparative Example 1” value in data set [1] was 8.83 times.
For the compound `COc1cc(OC)c2c(=O)cc(-c3ccccc3)oc2c1` [Synthesis Example 5, 5,7-dimethoxy-2-phenyl-4H-chromen-4-one], in data set [2], the “initial inhibitory activity” value is reported as 13.92 times. Besides, the concentration for half-maximal inhibition (IC50) was determined as 41.8 µM with AGE formation and 39.9 µM with crosslinking of AGEs (unit inferred).
